The results in this text go back to PubChem BioAssay (NCI).

Structures are written as SMILES.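 All cell lines were grown in 96-well plates and treated with compound for 48 hours. Here, GI50 denotes the concentration required for 50% inhibition of growth. TGI: total growth inhibition.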 Bounds are passed on as bounds.

Test systems include HOP-92 NSCLC; UACC-62 melanoma; SW-620 colon; SF-539 CNS; UO-31 renal; LOX IMVI melanoma; HOP-62 NSCLC; NCI-H460 lung; EKVX NSCLC; SF-268 CNS.
Test in all cases: NCI-60 cell line screen, 48 h

For the molecule `CCc1cccc(CC)c1/C=C/c1cncc(C(=O)NC)c1`, the GI50 with HOP-92 NSCLC was 1.27 µM; with UACC-62 melanoma, 10 µM; in the assay with SW-620 colon, 10.5 µM; in the assay on SF-539 CNS, 8.58 µM; in the assay on UO-31 renal, 8.8 µM; with LOX IMVI melanoma, 11.5 µM. The GI50 is 9.88 µM with HOP-62 NSCLC, 9.97 µM with NCI-H460 lung, 14.2 µM in the assay with EKVX NSCLC and 15.6 µM in the assay with SF-268 CNS. In addition, the TGI in the assay on HOP-92 NSCLC, with UACC-62 melanoma, in the assay on SW-620 colon, in the assay with SF-539 CNS, with UO-31 renal and in the assay on LOX IMVI melanoma was more than 25 µM each time. The TGI in the assay on HOP-62 NSCLC, with NCI-H460 lung, in the assay on EKVX NSCLC and with SF-268 CNS was more than 25 µM throughout.

For `CC(=O)OCCC(O[Si](c1ccccc1)(c1ccccc1)C(C)(C)C)C(C)(C)O` (stereo not given), the TGI in the assay on HOP-92 NSCLC is 65.1 µM; with UACC-62 melanoma it was more than 100 µM; in the assay on SW-620 colon it was more than 100 µM; with SF-539 CNS it was 63.8 µM; with UO-31 renal, 68.7 µM; in the assay with LOX IMVI melanoma, 57.8 µM. Besides, the TGI in the assay with NCI-H460 lung, in the assay with EKVX NSCLC and with SF-268 CNS was more than 100 µM in each case.

With `COc1ccccc1/C=C\C(=O)c1ccccc1`, the GI50 in the assay with HOP-92 NSCLC was 11.9 µM; with UACC-62 melanoma it was 5.57 µM; in the assay with SF-539 CNS it was 13.8 µM; in the assay with UO-31 renal it was 4.58 µM; in the assay with LOX IMVI melanoma, 2.93 µM; with HOP-62 NSCLC it was 17.3 µM. Further, the GI50 with NCI-H460 lung was 5.75 µM; in the assay on EKVX NSCLC, 3.82 µM; in the assay with SF-268 CNS, 13.1 µM. The TGI with HOP-92 NSCLC was 31.5 µM; in the assay with UACC-62 melanoma, 18.7 µM; with SF-539 CNS it was 26.7 µM; with UO-31 renal it was 17.3 µM; in the assay on LOX IMVI melanoma, 8.79 µM; in the assay on HOP-62 NSCLC, 32.6 µM. The TGI in the assay with NCI-H460 lung worked out at 18.4 µM; in the assay with EKVX NSCLC, 18.3 µM; in the assay with SF-268 CNS, 27 µM.

Consider `CC1(C)CC(=O)c2c(oc3cc(O)c(O)cc23)C1`, for which the TGI in the assay on HOP-92 NSCLC is 95.2 µM; with UACC-62 melanoma, 32 µM; with SW-620 colon it was 37.2 µM; in the assay with SF-539 CNS, more than 100 µM; with UO-31 renal it was more than 100 µM; in the assay with LOX IMVI melanoma, 31.4 µM. Further, the TGI was more than 100 µM in the assay with HOP-62 NSCLC, 85 µM in the assay on NCI-H460 lung and more than 100 µM with SF-268 CNS.

Regarding `C[C@@H]1C/C=C\C(=O)O[C@H](/C=C/C#C/C=C/C(C)(C)[C@@H](O)c2cccc(O)c2Br)[C@@H](C)/C=C/[C@H](C)C[C@H](OC(N)=O)C1`, the GI50 is 0.0228 µM in the assay with HOP-92 NSCLC; 0.0239 µM with UACC-62 melanoma; 0.0348 µM in the assay with SW-620 colon; 0.0227 µM in the assay on UO-31 renal; 0.0167 µM in the assay on LOX IMVI melanoma; 0.633 µM with HOP-62 NSCLC. The GI50 in the assay with NCI-H460 lung is 0.0234 µM; with EKVX NSCLC, 0.0716 µM; in the assay on SF-268 CNS it was 0.0402 µM. Also, the TGI in the assay with HOP-92 NSCLC worked out at 0.0836 µM; in the assay on UACC-62 melanoma, 0.0656 µM; in the assay on SW-620 colon, 15.8 µM; in the assay with UO-31 renal it was 0.0799 µM; in the assay with LOX IMVI melanoma, 0.0447 µM; with HOP-62 NSCLC, 21.4 µM. Besides, the TGI in the assay on NCI-H460 lung stood at 11.2 µM; in the assay with EKVX NSCLC, 18.7 µM; in the assay with SF-268 CNS, 18.2 µM.

`COc1ccc2c(c1)nc1n2C(c2ccc(F)cc2)SC1` (stereo not given): the GI50 was 23 µM in the assay with HOP-92 NSCLC; 16.6 µM in the assay with UACC-62 melanoma; 32.3 µM in the assay on SW-620 colon; 23.5 µM in the assay on UO-31 renal; 24.8 µM with LOX IMVI melanoma; 79.7 µM in the assay on HOP-62 NSCLC. In addition, the GI50 with NCI-H460 lung was 16.1 µM; in the assay on EKVX NSCLC it was 21.8 µM; in the assay on SF-268 CNS, 33.8 µM. The TGI was more than 100 µM with HOP-92 NSCLC; 34.9 µM in the assay on UACC-62 melanoma; more than 100 µM in the assay with SW-620 colon; 67.9 µM with UO-31 renal; 61 µM in the assay with LOX IMVI melanoma; more than 100 µM with HOP-62 NSCLC. Also, the TGI in the assay with NCI-H460 lung was 67.7 µM; in the assay on EKVX NSCLC it was 61.9 µM; in the assay with SF-268 CNS, more than 100 µM.

As to `CCCCCCCCCCCCCCCCS(=O)(=O)c1ccc(NN)cc1`, the TGI with HOP-92 NSCLC, in the assay with UACC-62 melanoma, in the assay on SW-620 colon, in the assay on SF-539 CNS, with LOX IMVI melanoma and with HOP-62 NSCLC was more than 10 µM in each case. Also, the TGI in the assay with NCI-H460 lung, with EKVX NSCLC and with SF-268 CNS was more than 10 µM throughout.

With `CCOCNc1ccc(N2C(=O)/C(=C/c3ccc(N(CC)CC)cc3)N=C2c2ccccc2)cc1`, the GI50 was 2.25 µM in the assay on HOP-92 NSCLC; 3.93 µM with UACC-62 melanoma; 41.5 µM with SW-620 colon; 4.87 µM with SF-539 CNS; 2.48 µM in the assay on LOX IMVI melanoma; 12.6 µM in the assay on HOP-62 NSCLC. Further, the GI50 with NCI-H460 lung was 2.86 µM; in the assay on EKVX NSCLC it was more than 100 µM; with SF-268 CNS, 7.73 µM. Further, the TGI in the assay with HOP-92 NSCLC was 12 µM; in the assay on UACC-62 melanoma, 37.1 µM; in the assay with SW-620 colon it was more than 100 µM; in the assay on SF-539 CNS it was 26.7 µM; with LOX IMVI melanoma, more than 100 µM; with HOP-62 NSCLC it was 35.3 µM. In addition, the TGI with NCI-H460 lung, in the assay on EKVX NSCLC and with SF-268 CNS was more than 100 µM in each case.

For `C=CC(=O)Nc1cccc(Nc2nc(Nc3ccc(OCCOC(F)F)cc3)ncc2F)c1`, the GI50 in the assay on HOP-92 NSCLC was 2.28 µM; with UACC-62 melanoma it was 1.73 µM; in the assay with SW-620 colon, 3.27 µM; with UO-31 renal it was 1.29 µM; with LOX IMVI melanoma it was 1.37 µM; in the assay on HOP-62 NSCLC, 2.38 µM. Besides, the GI50 in the assay with NCI-H460 lung is 2.74 µM; with EKVX NSCLC, 4.3 µM; with SF-268 CNS, 2.25 µM. For the same molecule, the TGI is 6.75 µM with HOP-92 NSCLC; 11.1 µM in the assay with UACC-62 melanoma; more than 100 µM with SW-620 colon; 9.56 µM in the assay on UO-31 renal; 4.52 µM in the assay on LOX IMVI melanoma; 17.2 µM in the assay with HOP-62 NSCLC. Also, the TGI in the assay with NCI-H460 lung is 35.6 µM; in the assay on EKVX NSCLC, more than 100 µM; in the assay on SF-268 CNS it was 17.6 µM.

On to `CCOC1=C2NC(Cc3ccc(F)cc3)=NC2C(=O)c2ccccc21` (stereo not given), for which the TGI in the assay on HOP-92 NSCLC is 51.6 µM; in the assay with UACC-62 melanoma, 63.3 µM; in the assay with SF-539 CNS, 36 µM; in the assay with UO-31 renal, 25.1 µM; in the assay on LOX IMVI melanoma, 71.4 µM; in the assay with HOP-62 NSCLC, more than 100 µM. Moreover, the results for the TGI in the assay with NCI-H460 lung and with EKVX NSCLC were 52.4 µM and 85.7 µM, respectively.
